Assay [1] has as its target Pin1 (Homo sapiens, UniProt Q13526, M130I). In words: PPIase assay (Supplementary Fig. 2e). Type of assay: biochemical.
Assay [2] has as its target T1, Pin1 (Homo sapiens, UniProt Q13526).
T1 construct: recombinant Pin1
The assay is described as follows: biotin-ATO pulldown with immunoblot, dose-dependent, competed by ATO. The assay is classed as binding. For orientation: Immunoblotting shows a protein as a band on a membrane.

Take `O=[As]O[As]=O` (centres unmarked) [ATO, Arsenic trioxide]: at Pin1 [1], the “PPIase assay (Supplementary Fig. 2e)” value is on record as “ATO dose-dependently inhibited the PPIase activity of Pin1 M130I, but not Pin1 M130V mutant”.

As for biotin-ATO, the Kd (as a rule, the equilibrium constant for the complex coming apart) on Pin1 [2] is 238 nM.
